Results as given in DBAASP.
Values after ≈ are worked out from the molar mass of the structure shown. Values joined by “and” are separate entries in the source; they are usually repeats but may differ in a detail not shown here. Equal entries are not always repeated.

Columns and labels:
Experiment in all cases: ≥ marks a high value that may be exact or a test limit, other limits are often not marked, values filed in µg/mL are converted to µM
[1] = system: Candida albicans KCTC 7270
[2] = system: Aspergillus awamori KCTC 6915
[3] = system: Bacillus subtilis KCTC 1998
[4] = system: Aspergillus parasiticus KCTC 6598
[5] = system: Salmonella typhimurium KCTC 1926
[6] = system: Trichosporon beigelii KCTC 7707
[7] = system: Escherichia coli ATCC 25922
[8] = system: Staphylococcus epidermidis ATCC 12228
[9] = system: Pseudomonas aeruginosa ATCC 15692
[10] = system: Proteus vulgaris KCTC 2433
[11] = system: Listeria monocytogenes KCTC 3710
[12] = system: Aspergillus fumigatus KCTC 6145
[13] = system: Aspergillus flavus KCTC 6905
[14] = system: Staphylococcus aureus ATCC 25923
[15] = system: Pseudomonas aeruginosa ATCC 9027
[16] = system: Micrococcus luteus ATCC 9341
[17] = system: Escherichia coli ATCC 2592
[18] = system: Candida albicans ATCC 36232
[19] = system: Staphylococcus aureus ATCC 6538
[20] = system: Staphylococcus aureus 1550
[21] = system: Staphylococcus aureus P1381
[22] = system: Pseudomonas aeruginosa 5018
[23] = system: Pseudomonas aeruginosa AB93066
[24] = system: Staphylococcus aureus ATCC 29213
[25] = system: Staphylococcus epidermidis AB208187
[26] = system: Acinetobacter baumannii KCTC 2508
[27] = system: Salmonella enterica subsp. enterica serovar Typhimurium ATCC 14028
[28] = system: Bacillus subtilis AB91021
[29] = system: Staphylococcus aureus AB94004
[30] = system: Pseudomonas aeruginosa 671973
[31] = system: Bacillus cereus KCTC 1012
Escherichia coli AB94012 = system: Escherichia coli AB94012
Enterococcus faecium = system: Enterococcus faecium
Acinetobacter baumannii = system: Acinetobacter baumannii
Streptococcus agalactiae = system: Streptococcus agalactiae
[32] = system: Micrococcus luteus AB93113
[33] = system: Klebsiella pneumoniae KCTC 2208
[34] = system: Staphylococcus epidermidis AB208188
[35] = system: Staphylococcus aureus AB208193
[36] = system: Staphylococcus aureus P1374
[37] = system: Pseudomonas aeruginosa 4007
[38] = system: Acinetobacter baumannii ATCC 19606
[39] = system: Pseudomonas aeruginosa 3592
Escherichia coli HB101 = system: Escherichia coli HB101
Pseudomonas aeruginosa = system: Pseudomonas aeruginosa
Salmonella typhimurium = system: Salmonella typhimurium
Bacillus subtilis = system: Bacillus subtilis
[40] = system: Klebsiella pneumoniae ATCC 700603
[41] = system: Pseudomonas aeruginosa PAO1
[42] = system: Staphylococcus aureus ATCC 29313
[43] = system: Pseudomonas aeruginosa ATCC 27853
[44] = system: Pseudomonas aeruginosa Pa1-SA2
[45] = system: Pseudomonas aeruginosa PA006
[46] = system: Pseudomonas aeruginosa Pa4-SA2

Q: How did the MIC [1] turn out when `CC[C@H](C)[C@H](NC(=O)[C@H](CCCCN)NC(=O)[C@H](CCCCN)NC(=O)[C@H](C)NC(=O)[C@H](CC(C)C)NC(=O)[C@H](CCCCN)NC(=O)[C@H](CCCCN)NC(=O)[C@H](CC(C)C)NC(=O)[C@H](CCCN=C(N)N)NC(=O)[C@H](CCCCN)NC(=O)[C@H](C)N)C(=O)N[C@@H](Cc1c[nH]c2ccccc12)C(=O)N[C@@H](CCCCN)C(=O)N[C@@H](Cc1c[nH]c2ccccc12)C(=O)N[C@@H](CC(C)C)C(N)=O` [AKRLKKLAKKIWKWL] was run?
A: 16 µM (≈ 30.6 µg/mL)

Q: What about the MIC [2] of the same compound?
A: ≥ 64 µM

Q: And the MIC [3]?
A: 8 µM (≈ 15.3 µg/mL)

Q: What about the MIC [4] of the same compound?
A: 16 µM (≈ 30.6 µg/mL)

Q: And the MIC [5]?
A: 8 µM (≈ 15.3 µg/mL)

Q: What about the MIC [6] of the same compound?
A: ≥ 128 µM

Q: And the MIC [7]?
A: 32 µM (≈ 61.1 µg/mL)

Q: What about the MIC [8] of the same compound?
A: 8 µM (≈ 15.3 µg/mL)

Q: And the MIC [9]?
A: ≥ 32 µM

Q: And the MIC [10]?
A: 11.3 µM (≈ 21.6 µg/mL)

Q: What about the MIC [11] of the same compound?
A: 16 µM (≈ 30.6 µg/mL)

Q: What about the MIC [12] of the same compound?
A: 16 µM (≈ 30.6 µg/mL)

Q: What about the MIC [13] of the same compound?
A: ≥ 64 µM

Q: And the MIC [14]?
A: 16 µM (≈ 30.6 µg/mL)

Q: How did the MIC [15] turn out when `CC(C)[C@H](NC(=O)[C@H](CCCCN)NC(=O)[C@H](CCCCN)NC(=O)[C@H](CCCCN)NC(=O)[C@H](CCCCN)NC(=O)[C@H](CCCCN)NC(=O)[C@@H](NC(=O)[C@@H](NC(=O)[C@@H](N)Cc1ccccc1)C(C)C)C(C)C)C(=O)N[C@@H](Cc1ccccc1)C(=O)O` [FVVKKKKKVF] was run?
A: > 80 µM

Q: What about the MIC [16] of the same compound?
A: ≥ 80 µM

Q: And the MIC [17]?
A: ≥ 80 µM

Q: What about the MIC [18] of the same compound?
A: ≥ 80 µM

Q: What about the MIC [19] of the same compound?
A: > 80 µM

Q: And the MIC [20]?
A: ≥ 80 µM

Q: How did the MIC [15] turn out when `CC[C@H](C)[C@H](NC(=O)CN)C(=O)N[C@@H](CC(C)C)C(=O)NCC(=O)N[C@@H](CCCCN)C(=O)N[C@@H](CC(C)C)C(=O)N[C@@H](Cc1c[nH]c2ccccc12)C(=O)N[C@@H](CCC(=O)O)C(=O)NCC(=O)N[C@H](C(=O)N[C@@H](CCCCN)C(=O)N[C@@H](CO)C(=O)N[C@H](C(=O)N[C@@H](Cc1ccccc1)C(N)=O)[C@@H](C)CC)C(C)C` [GILGKLWEGVKSIF] was run?
A: > 64.6 µM

Q: And the MIC [21]?
A: 8.08 µM (≈ 12.5 µg/mL)

Q: What about the MIC [22] of the same compound?
A: 12.5 µM (≈ 19.3 µg/mL)

Q: What about the MIC [23] of the same compound?
A: ≥ 64.6 µM

Q: And the MIC [24]?
A: 6.25 µM (≈ 9.66 µg/mL)

Q: And the MIC [25]?
A: 16.2 µM (≈ 25 µg/mL)

Q: And the MIC [19]?
A: 8.08 µM (≈ 12.5 µg/mL)

Q: And the MIC [26]?
A: 3.13 µM and 6.25 µM

Q: And the MIC [27]?
A: 3.13 µM (≈ 4.84 µg/mL)

Q: What about the MIC [28] of the same compound?
A: 8.08 µM (≈ 12.5 µg/mL)

Q: And the MIC [29]?
A: 8.08 µM (≈ 12.5 µg/mL)

Q: What about the MIC [11] of the same compound?
A: 3.13 µM (≈ 4.84 µg/mL)

Q: And the MIC [30]?
A: 3.13 µM (≈ 4.84 µg/mL)

Q: And the MIC [31]?
A: 12.5 µM (≈ 19.3 µg/mL)

Q: And the MIC (Escherichia coli AB94012)?
A: ≥ 64.6 µM

Q: What about the MIC (Enterococcus faecium) of the same compound?
A: 8.08 µM (≈ 12.5 µg/mL)

Q: What about the MIC (Acinetobacter baumannii) of the same compound?
A: 4.14 µM and 3.13 µM and 6.25 µM

Q: And the MIC (Streptococcus agalactiae)?
A: 16.2 µM (≈ 25 µg/mL)

Q: What about the MIC [32] of the same compound?
A: 8.08 µM (≈ 12.5 µg/mL)

Q: And the MIC [33]?
A: 12.5 µM (≈ 19.3 µg/mL)

Q: And the MIC [34]?
A: 16.2 µM (≈ 25 µg/mL)

Q: What about the MIC [35] of the same compound?
A: 8.08 µM (≈ 12.5 µg/mL)

Q: And the MIC [14]?
A: 4.04 µM and 3.13 µM

Q: What about the MIC [36] of the same compound?
A: 16.2 µM (≈ 25 µg/mL)

Q: What about the MIC [37] of the same compound?
A: 25 µM (≈ 38.6 µg/mL)

Q: And the MIC [38]?
A: 3.23 µM (≈ 5 µg/mL)

Q: What about the MIC [39] of the same compound?
A: 6.25 µM (≈ 9.66 µg/mL)

Q: Which results are given for `CC[C@H](C)[C@H](NC(=O)[C@@H](NC(=O)[C@@H]1CCCN1C(=O)[C@@H](NC(=O)[C@@H]1CCCN1C(=O)[C@H](CCCCN)NC(=O)[C@H](CCCCN)NC(=O)[C@H](CO)NC(=O)CN)C(C)C)[C@@H](C)CC)C(=O)N[C@@H](Cc1ccc(O)cc1)C(=O)N[C@H]1CSSC[C@@H](C(=O)N[C@@H](CCC(N)=O)C(=O)N[C@@H](CCCN=C(N)N)C(=O)N[C@@H](CCSC)C(=O)O)NC(=O)[C@H](CCCCN)NC(=O)CNC(=O)[C@H]([C@@H](C)O)NC(=O)[C@H](C)NC(=O)[C@H](C)NC(=O)[C@H](CCCN=C(N)N)NC(=O)[C@H](CCCN=C(N)N)NC(=O)[C@H](CC(N)=O)NC1=O` [GSKKPVPIIYCNRRAATGKCQRM]?
A: MIC (Escherichia coli HB101): 2.6 µM (≈ 6.7 µg/mL); MIC (Pseudomonas aeruginosa): 7.35 µM (≈ 18.9 µg/mL); MIC (Salmonella typhimurium): 2.6 µM (≈ 6.7 µg/mL); MIC (Bacillus subtilis): 20.8 µM (≈ 53.6 µg/mL)

Q: What does the source list for `CC[C@H](C)[C@H](NC(=O)[C@H](CCCCN)NC(=O)CNC(=O)[C@H](CCSC)NC(=O)[C@H](C)NC(=O)[C@H](Cc1cnc[nH]1)NC(=O)[C@H](C)NC(=O)[C@@H](NC(=O)[C@H](CC(C)C)NC(=O)[C@H](CCC(N)=O)NC(=O)[C@H](CCCCN)NC(=O)CNC(=O)[C@H](C)NC(=O)CNC(=O)[C@H](CCCCN)NC(=O)[C@@H](NC(=O)[C@@H](NC(=O)[C@H](CC(=O)O)NC(=O)[C@H](Cc1ccccc1)NC(=O)[C@@H](NC(=O)CN)C(C)C)[C@@H](C)CC)[C@@H](C)CC)[C@@H](C)CC)C(=O)N[C@@H](C)C(=O)N[C@@H](CCC(=O)O)C(=O)N[C@@H](CCCCN)C(=O)N[C@H](C(N)=O)C(C)C` [GVFDIIKGAGKQLIAHAMGKIAEKV]?
A: MIC [40]: 308 µM (≈ 800 µg/mL); MIC [41]: 197 µM (≈ 512 µg/mL); MIC [42]: ≥ 308 µM; MIC [7]: 77.1 µM (≈ 200 µg/mL); MIC [43]: > 197 µM; MIC [27]: 308 µM (≈ 800 µg/mL); MIC [44]: ≥ 197 µM; MIC [45]: 6.17 µM (≈ 16 µg/mL); MIC [46]: ≥ 98.6 µM
